This note sets out measurements from PubChem BioAssay AID743059 (The Scripps Research Institute Molecular Screening Center, 2013).

The structures appear in SMILES notation. Activity calls are given as the source filed them.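 Rule for the calls: active = EC50 at or below 10 µM; inactive = EC50 above 10 µM.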 A value given as a limit tells only on which side of the number the result lay.

In the assay the target is Nuclear hormone receptor DAF-12 (Heterodera glycines). In words: hgDAF-12 reporter activation EC50 – cell-based, luminescence, HEK293, dose response (AID 743059).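 Note: agonist potency for compounds that raise hgDAF-12 reporter luminescence.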 The following applies: HEK293 hgDAF-12 reporter, luciferase luminescence.
`COCCNc1nc(-c2cc3ccccc3o2)cs1`: the EC50 (commonly the midpoint of the concentration-response curve) is > 67.5 µM (inactive).
Take `O=C(NCC1CCCO1)c1cc(-c2ccccc2F)no1` (stereo not given): the EC50 entry is “inactive”.
As to `N#Cc1c(Br)n(C2OC(CO)C(O)C2O)c2ncnc(N)c12` (stereo not given), the EC50 was > 67.5 µM (inactive).
`FC(F)(F)c1cc(Cl)c2nc(-c3ccccc3)cn2c1`: the EC50 was > 67.5 µM (inactive).
As for `CC1CCc2c(sc(NC(=O)C3=COCCO3)c2C(N)=O)C1` (stereo not given), the EC50 is > 67.5 µM (inactive).
With `O=C(Nc1ccccn1)c1csc2c1CCCC2`, the EC50 was > 67.5 µM (inactive).
Regarding `Cc1cc(C(=O)NC2CCCCC2)c(C)n1-c1ccc(F)cc1`, the EC50 was > 67.5 µM (inactive).
The same measure for `Nc1c2c(nc3sc4c(c13)CCCC4)CCCCC2`: > 67.6 µM (inactive); for `Cc1ccc(/C=N/NC(=O)c2ccoc2C)s1`: > 67.6 µM (inactive); for `Cn1c(O)c(N=NC(=O)c2ccco2)c2ccccc21`: > 67.5 µM (inactive).
As for `Cc1nc(N)sc1N=Nc1ccc(Br)cc1`, the EC50 is > 67.5 µM (inactive).
For the compound `Cc1ccc2oc(-c3cccc(N)c3)nc2c1`, the EC50 was > 67.6 µM (inactive).
Regarding `O=C(/C=C/c1ccccc1)N1CCC(c2ccccc2)C1` (stereo not given), the EC50 is > 67.5 µM (inactive).
Regarding `COCCNC(=O)/C(C#N)=C/c1cc(C)n(C2CCCCC2)c1C`, the EC50 is > 67.5 µM (inactive).
The same measure for `Cc1ccnc(NC(=O)/C=C/c2cccs2)c1`: > 67.6 µM (inactive); for `N/C(=N\OC(=O)c1cc(Br)ccc1Cl)c1ccccn1`: > 67.5 µM (inactive); for `Cc1ccc(/C=N/N=C/c2ccc(C)s2)s1`: > 67.5 µM (inactive).
As for `Clc1cccc(-c2nnc(-c3ccccc3)o2)c1`, the EC50 is > 67.5 µM (inactive).
The same measure for `OCCN1CCN(c2cnc(-c3ccsc3)cn2)CC1`: > 67.5 µM (inactive); for `C#CCNC(=O)C[C@H]1C[C@@]2(C(=O)OC)C(=C[C@H](C(C)C)O[C@@H]2C2CC2)N(CCCCCCCC)C1=O`: > 67.5 µM (inactive).
Regarding `Cn1c(NC(=O)CCC2CCCCC2)cc(=O)n(C)c1=O`, the EC50 is > 67.5 µM (inactive).
For the compound `CCOC(=O)CSc1nc(-c2ccncc2)ccc1C#N`, the EC50 was > 67.5 µM (inactive).
To `O=c1c2ccccc2cnn1-c1ccc2ccccc2c1` belongs > 67.5 µM (inactive); to `O=[N+]([O-])c1cccnc1NCCNc1ncc(C(F)(F)F)cc1Cl`, > 67.5 µM (inactive); to `C/C(=N/OCc1ccc(Br)cc1)c1ccccn1`, > 67.6 µM (inactive).
On to `Cc1ccc(-c2csc(NC(=O)/C=C/c3ccco3)c2C(=O)O)cc1`, for which the EC50 was > 67.6 µM (inactive).
Turning to `O=C(NC1CCC1)c1ccc(C#CC2CC2)cn1`, the EC50 was > 67.5 µM (inactive).
As for `c1ccc(Nc2nc(-c3cccnc3)cs2)nc1`, the EC50 was > 67.6 µM (inactive).
The same measure for `Cc1ccc(-c2cn3cccnc3n2)cc1`: > 67.6 µM (inactive); for `Cc1cc(N=Nc2ccc3ccccc3c2)ccc1O`: > 67.6 µM (inactive); for `Cc1cccc(NC(=O)c2ccc3ccccc3n2)c1C`: > 67.5 µM (inactive).
To `COc1ccc2oc(C(=O)Nc3nccs3)c(C)c2c1` belongs > 67.5 µM (inactive); to `CCc1cc(C(=O)Nc2ncccc2O)sc1C`, > 67.5 µM (inactive); to `Clc1ccc(-c2cn3cc(Cl)ccc3n2)cc1`, > 67.6 µM (inactive).
As for `O=C(NNCc1ccccc1)c1ccccn1`, the EC50 is > 67.6 µM (inactive).
Consider `CCCCCc1nnc(NC(=O)C2=COCCO2)s1`, for which the EC50 was > 67.6 µM (inactive).
Take `Cc1ccc(NC(=S)N/C(=N/S(=O)(=O)c2ccccc2)c2ccccc2)cc1`: the EC50 was > 67.5 µM (inactive).
As to `CC1=CN2C(=N)/C(=C/c3ccco3)C(=O)N=C2S1`, the EC50 was > 67.5 µM (inactive).
As to `C/C(=N\NC(=O)OC(C)(C)C)c1ccc[nH]1`, the EC50 was > 67.6 µM (inactive).
Take `CCOC(=O)c1cn[nH]c1NC(=S)Nc1ccccc1`: the EC50 is > 67.6 µM (inactive).
Regarding `Nc1ccc(C(=O)Nc2ccccc2N)cc1`, the EC50 was 4.24 µM.
For `Clc1ccccc1Nc1nnc(-c2ccncc2)s1`, the EC50 is > 67.5 µM (inactive).
Turning to `Cc1ccnc(NC(=O)CCNS(=O)(=O)c2ccc(C)c(C)c2)c1`, the EC50 is > 67.6 µM (inactive).
As to `Cc1nc2nc(-c3cccs3)[nH]c2cc1Br`, the EC50 was > 67.5 µM (inactive).
Regarding `Clc1ccc(CSc2nc3ccncc3[nH]2)cc1`, the EC50 is > 67.5 µM (inactive).
For the compound `Oc1ccccc1-c1cc(-c2ccc3c(c2)OCCO3)n[nH]1`, the EC50 is > 67.6 µM (inactive).
For `Cc1nn(C(=O)c2cccs2)c(N)c1-c1ccccc1`, the EC50 is > 67.5 µM (inactive).
`CCOC(=O)c1csc(-c2sccc2Br)n1`: the EC50 is > 67.6 µM (inactive).
As to `Nc1ncc(Br)cc1N=Cc1ccccc1`, the EC50 was > 67.5 µM (inactive).
The same measure for `Cc1c(C(=O)Nc2ccccc2)csc1-c1ccccc1`: > 67.5 µM (inactive); for `Cc1cc(C)n2c(NC3CCCC3)c(-c3cc4ccccc4o3)nc2n1`: > 67.5 µM (inactive); for `CC(C)Oc1cc(O)c2c(=O)c(-c3ccc(O)cc3)coc2c1`: > 67.6 µM (inactive).
The same measure for `CCn1c(O)c(C=Nc2ccccc2)sc1=S`: > 67.5 µM (inactive); for `Nc1nn(-c2cccc(F)n2)cc1-c1ccccc1`: > 67.5 µM (inactive); for `CCOC(=O)N1CCC(NC(=O)c2cc3ccccn3n2)CC1`: > 67.5 µM (inactive).
On to `COCCNC(=O)/C(C#N)=C/c1cc(C)n(-c2ccc(C)cc2)c1C`, for which the EC50 was > 67.5 µM (inactive).
The same measure for `Cc1ccc(-c2nc(Nc3ccccc3)n[nH]2)cc1`: > 67.5 µM (inactive); for `CCOC(=O)c1c(C)[nH]c(N=Nc2cccc(OC)c2)c1C`: > 67.5 µM (inactive).
As for `COc1cccc(-c2nc(-c3ccc(Br)o3)no2)c1`, the EC50 is > 67.5 µM (inactive).
The same measure for `Clc1ccc(Nc2nc(-c3cccs3)cs2)nc1`: > 67.5 µM (inactive); for `CCOC(=O)c1sc2nc3c(cc2c1N)COC(C)(CC)C3` (stereo not given): > 67.5 µM (inactive).
In the case of `Cc1nnc(SCC(=O)Nc2nsc(-c3ccc(C(C)(C)C)cc3)n2)s1`, the EC50 is > 67.5 µM (inactive).
To `Cc1cnc(NC(=O)COc2ccc3c(c2)CCC3)s1` belongs > 67.6 µM (inactive).
Consider `Cc1cc2nn(-c3ccc(F)cc3)nc2cc1N`, for which the EC50 was > 67.5 µM (inactive).
In the case of `COC(=O)c1sc2nc3c(cc2c1N)CCCC3`, the EC50 was > 67.5 µM (inactive).
Turning to `COc1ccc(/C=C2\SC(=O)N(CCNC(=O)C3CC4C=CC3C4)C2=O)cc1` (stereo not given), the EC50 was > 67.5 µM (inactive).
As to `CC(=Nc1cccc(C)c1)c1sc2ccccc2c1O`, the EC50 was > 67.6 µM (inactive).
To `O=[N+]([O-])c1ccc2c(c1)Nc1nc3ccccc3nc1N2` belongs > 67.5 µM (inactive); to `CC(C)C[C@H](NC(=O)OCC1c2ccccc2-c2ccccc21)C(=O)O`, > 67.5 µM (inactive).
On to `Cc1ccc(-c2nnc(NC3CCCC3)s2)cc1`, for which the EC50 is > 67.6 µM (inactive).
